The text below walks through data of patent US20050075375A1 (priority 2003, published 2005).

SMILES strings stand for the structures.

The first experiment concerns monocistronic NK5.1 HCV replicon in Huh7 cells. In words: HCV replicon assay, monocistronic replicon cell line. The settings on record: Hepatitis C virus, Huh-7, 72 h; Table 1; monocistronic replicon in Huh7 cells, 3 days incubation, HCV RNA/GAPDH RNA by TaqMan RT-PCR; read-out: Mono EC50 Median. It is filed as cell-based, hepatitis C virus. In outline:
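EC50 derives from the HCV RNA/GAPDH RNA ratio by one-step TaqMan RT-PCR, relative to DMSO-only wells. Compounds (six half-log concentrations, 0.6% DMSO) were incubated 3 days at 37 °C with NK5.1 monocistronic replicon Huh7 cells plated a day earlier.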
`COc1ccccc1-c1ccnn1-c1ncccc1[N+](=O)[O-]` [Compound 37, 2-[5-(2-Methoxy-phenyl)-pyrazol-1-yl]-3-nitro-pyridine]: the EC50 was > 32 µM.

With `Oc1ccc2ccccc2c1-c1nc(-c2ccccn2)no1` [Compound 134, 1-(3-Pyridin-2-yl-[1,2,4]oxadiazol-5-yl)-naphthalen-2-ol], the EC50 is 17 µM.

Regarding `COc1cccc(-c2nc(-c3ncccc3C)no2)c1` [Compound 176, 2-[5-(3-Methoxy-phenyl)-[1,2,4]oxadiazol-3-yl]-3-methyl-pyridine], the EC50 came to 13 µM.

On to `FC(F)(F)c1ccc(-c2noc(-c3cccc4ccccc34)n2)nc1` [Compound 227, 2-(5-Naphthalen-1-yl-[1,2,4]oxadiazol-3-yl)-5-trifluoromethyl-pyridine], for which the EC50 was > 32 µM.

Regarding `Cc1cccnc1-c1noc(-c2ccc([N+](=O)[O-])cc2Cl)n1` [Compound 182, 2-[5-(2-Chloro-4-nitro-phenyl)-[1,2,4]oxadiazol-3-yl]-3-methyl-pyridine], the EC50 turned out to be 12 µM.

For `CCCNC(=O)c1cc(-c2ccc3ccccc3c2)n(-c2ncccc2C(F)(F)F)n1` [Compound 77, 5-Naphthalen-2-yl-1-(3-trifluoromethyl-pyridin-2-yl)-1H-pyrazole-3-carboxylic acid propylamide], the EC50 is > 32 µM.

For the compound `Cc1cc(-c2ccc3ccccc3c2O)nn1-c1ccc(C(C)C)cc1` [Compound 29, 2-[1-(4-Isopropyl-phenyl)-5-methyl-1H-pyrazol-3-yl]-naphthalen-1-ol], the half-maximal effective concentration (EC50) was > 19 µM.

Turning to `COc1cccnc1-c1noc(-c2cccc(OC)c2O)n1` [Compound 246, 2-Methoxy-6-[3-(3-methoxy-pyridin-2-yl)-[1,2,4]oxadiazol-5-yl]-phenol], the EC50 came out at 19 µM.

Consider `COc1ccccc1-c1ccn(-c2ccccc2[N+](=O)[O-])n1` [Compound 31, 3-(2-Methoxy-phenyl)-1-(2-nitro-phenyl)-1H-pyrazole], for which the EC50 stood at 21 µM.

On to `COc1cccc(-c2nc(-c3ncccc3C(F)(F)F)no2)c1O` [Compound 207, 2-Methoxy-6-[3-(3-trifluoromethyl-pyridin-2-yl)-[1,2,4]oxadiazol-5-yl]-phenol], for which the EC50 turned out to be 17 µM.

Consider `O=C(O)c1cc(-c2ccc3ccccc3c2)n(-c2ncccc2[N+](=O)[O-])n1` [Compound 75], for which the concentration giving a half-maximal response (EC50) was > 32 µM.

For `Oc1ccccc1-c1ccnn1-c1ccccn1` [Compound 44, 2-(2-Pyridin-2-yl-2H-pyrazol-3-yl)-phenol], the EC50 was > 32 µM.

On to `c1ccc(-c2noc(-c3cccc4ccccc34)n2)nc1` [Compound 140, 2-(5-Naphthalen-1-yl-[1,2,4]oxadiazol-3-yl)-pyridine], for which the EC50 is 7.1 µM.

For `Cc1cccnc1-c1noc(-c2cccc3ccccc23)n1` [Compound 177, 3-Methyl-2-(5-naphthalen-1-yl-[1,2,4]oxadiazol-3-yl)-pyridine], the concentration giving a half-maximal response (EC50) came to 7.2 µM.

As for `COc1cc(O)c(-c2ccn(-c3ccccn3)n2)cc1OC` [Compound 120, 4,5-Dimethoxy-2-(1-pyridin-2-yl-1H-pyrazol-3-yl)-p henol], the EC50 stood at 31.2 µM.

Take `COc1ccc(-c2nc(-c3ncccc3-c3ccccc3)no2)c(O)c1` [Compound 235, 5-Methoxy-2-[3-(3-phenyl-pyridin-2-yl)-[1,2,4]oxadiazol-5-yl]-phenol]: the EC50 is 2.3 µM.

On to `CCOC(=O)c1cc(-c2ccc(OC)cc2)n(-c2ncccc2[N+](=O)[O-])n1` [Compound 61, 5-(4-Methoxy-phenyl)-1-(3-nitro-pyridin-2-yl)-1H-pyrazole-3-carboxylic acid ethyl ester], for which the EC50 was 19 µM.

In the case of `COc1cccc(-c2nc(-c3ncccc3[N+](=O)[O-])no2)c1O` [Compound 166, 2-Methoxy-6-[3-(3-nitro-pyridin-2-yl)-[1,2,4]oxadiazol-5-yl]-phenol], the EC50 is > 19 µM.

For `COc1ccc(O)c(-c2ccn(-c3ncccc3[N+](=O)[O-])n2)c1` [Compound 117, 4-Methoxy-2-[1-(3-nitro-pyridin-2-yl)-1H-pyrazol-3-yl]-phenol], the EC50 stood at 25.4 µM.

Staying with this experiment, now noted: Hepatitis C virus, Huh-7, 72 h; table T3 (compounds 471-640); monocistronic replicon in Huh7 cells, 3 days incubation, HCV RNA/GAPDH RNA by TaqMan RT-PCR; read-out: Mono EC50 Median.
In the case of `CC(C)c1ccc(-c2nc(-c3ncccc3C(F)(F)F)n[nH]2)cc1` [Compound 548, 2-[5-(4-Isopropyl-phenyl)-1H-[1,2,4]triazol-3-yl]-3-trifluoromethyl-pyridine], the EC50 was > 19 µM.

With `Oc1ccc(O)c(-c2nc(-c3cnccn3)n[nH]2)c1` [Compound 588, 4-Hydroxy-2-(5-pyrazin-2-yl-2H-[1,2,4]triazol-3-yl)-phenol], the EC50 is > 32 µM.

In the case of `Fc1ccccc1-c1nc(-c2cnccc2C(F)(F)F)n[nH]1` [Compound 475, 3-[5-(2-Fluoro-phenyl)-1H-[1,2,4]triazol-3-yl]-4-trifluoromethyl-pyridine], the EC50 is > 32 µM.

For `Oc1ccc(Br)cc1-c1nc(-c2cnccn2)n[nH]1` [Compound 582, 4-Bromo-2-(5-pyrazin-2-yl-2H-[1,2,4]triazol-3-yl)-phenol], the EC50 was 18 µM.

Take `COc1ccc(-c2nc(-c3ncccn3)n[nH]2)c(O)c1` [Compound 568, 5-Methoxy-2-(5-pyrimidin-2-yl-2H-[1,2,4]triazol-3-yl)-phenol]: the EC50 was > 32 µM.

For `Nc1cccnc1-c1n[nH]c(-c2c(O)ccc3ccccc23)n1` [Compound 557, 1-[5-(3-amino-pyridin-2-yl)-2H-[1,2,4]triazol-3-yl]-naphthalen-2-ol], the EC50 was > 3.2 µM.

Regarding `Oc1ccc(F)cc1-c1nc(-c2ncccn2)n[nH]1` [Compound 561, 4-Fluoro-2-(5-pyrimidin-2-yl-2H-[1,2,4]triazol-3-yl)-phenol], the EC50 is > 32 µM.

On to `Oc1ccc2ccccc2c1-c1nc(-c2cnccn2)n[nH]1` [Compound 589, 1-(5-pyrazin-2-yl-2H-[1,2,4]triazol-3-yl)-naphthalen-2-ol], for which the EC50 was determined as 7 µM.

Regarding `Cc1ccc(O)c(-c2nc(-c3ncccc3Br)n[nH]2)c1` [Compound 493, 2-[5-(3-Bromo-pyridin-2-yl)-2H-[1,2,4]triazol-3-yl]-4-Methyl-phenol], the EC50 is 16 µM.

On to `Oc1ccc(Br)cc1-c1ncn(-c2ccccn2)n1` [Compound 631, 4-Bromo-2-(1-pyridin-2-yl-1H-[1,2,4]triazol-3-yl)-phenol], for which the half-maximal effective concentration (EC50) came out at 1.4 µM.

Consider `Oc1ccc(F)cc1-c1nc(-c2cnccn2)n[nH]1` [Compound 577, 4-Fluoro-2-(5-pyrazin-2-yl-2H-[1,2,4]triazol-3-yl)-phenol], for which the EC50 came out at 18 µM.

`Cc1cccnc1-c1n[nH]c(-c2ccccc2Br)n1` [Compound 504, 2-[5-(2-Bromo-phenyl)-1H-[1,2,4]triazol-3-yl]-3-mehtyl-pyridine]: the EC50 stood at 7.3 µM.

On to `COc1ccc(O)c(-c2ncn(-c3ccccn3)n2)c1` [Compound 636, 4-Methoxy-2-(1-pyridin-2-yl-1H-[1,2,4]triazol-3-yl)-phenol], for which the EC50 is 15 µM.

The same experiment, now with this note: Hepatitis C virus, Huh-7; monocistronic NK5.1 HCV replicon in Huh7 cells; median value; read-out: Mono EC50 Median.
Turning to `Cc1cccc(-c2n[nH]c(-c3ccc(Br)cc3)n2)n1` [Compound 464, 2-[5-(4-Bromo-phenyl)-1H-[1,2,4]triazol-3-yl]-6-methyl-pyridine], the EC50 is > 32 µM.

With `Cc1cccc(-c2n[nH]c(-c3cc(F)ccc3O)n2)n1` [Compound 393, 4-Fluoro-2-(5-(6-methyl-pyridin-2-yl)-2H-[1,2,4]triazol-3-yl)-phenol], the EC50 is > 19 µM.

As for `CCOc1cccc(-c2nc(-c3ncccc3C)no2)c1O` [Compound 268, 2-Ethoxy-6-[3-(3-methyl-pyridin-2-yl)-[1,2,4]oxadiazol-5-yl]-phenol], the EC50 is 28.7 µM.

With `Oc1ccccc1-c1nnc(-c2ncc(C(F)(F)F)cc2Cl)o1` [Compound 343, 2-[5-(3-Chloro-5-trifluoromethyl-pyridin-2-yl)-[1,3,4]oxadiazol-2-yl]-phenol], the EC50 worked out at 17 µM.

Turning to `COc1ccccc1-c1nnc(-c2ncc(C(F)(F)F)cc2Cl)o1` [Compound 346, 3-Chloro-2-[5-(2-methoxy-phenyl)-[1,3,4]oxadiazol-2-yl]-5-trifluoromethyl-pyridine], the EC50 is > 32 µM.

For the compound `FC(F)(F)c1ccc(-c2noc(-c3cccc4ccccc34)n2)nc1` [Compound 227, 2-(5-Naphthalen-1-yl-[1,2,4]oxadiazol-3-yl)-5-trifluoromethyl-pyridine], the EC50 was > 32 µM.

Regarding `COc1cccnc1-c1noc(-c2cccc(OC)c2O)n1` [Compound 246, 2-Methoxy-6-[3-(3-methoxy-pyridin-2-yl)-[1,2,4]oxadiazol-5-yl]-phenol], the EC50 came to 19 µM.

`Oc1cc(OCc2ccccc2)ccc1-c1nc(-c2nccc3ccccc23)n[nH]1` [Compound 373, 5-Benzyloxy-2-(5-isoquinolin-1-yl-2H-[1,2,4]triazol-3-yl)-phenol]: the EC50 is > 19 µM.

`Fc1ccccc1-c1nnc(-c2c(Cl)cccc2Cl)o1` [Compound 335, 2-(2,6-Dichloro-phenyl)-5-(2-fluoro-phenyl)-[1,3,4]oxadiazole]: the EC50 is > 32 µM.

For the compound `COc1cccc(-c2nc(-c3ncccc3C)n[nH]2)c1` [Compound 458, 2-[5-(3-Methoxy-phenyl)-1H-[1,2,4]triazol-3-yl]-3-methyl-pyridine], the EC50 was > 32 µM.

Regarding `COc1ccc(F)c(-c2nc(-c3nccc4ccccc34)n[nH]2)c1` [Compound 383], the EC50 is > 19 µM.

In the case of `COc1ccc(-c2nc(-c3ncccc3-c3ccccc3)no2)c(O)c1` [Compound 235, 5-Methoxy-2-[3-(3-phenyl-pyridin-2-yl)-[1,2,4]oxadiazol-5-yl]-phenol], the EC50 was 2.3 µM.

On to `Cc1ccc(O)c(-c2nc(-c3ncccc3C)n[nH]2)c1` [Compound 450, 4-Methyl-2-(5-(3-methyl-pyridin-2-yl)-2H-[1,2,4]triazol-3-yl)-phenol], for which the EC50 was 4.2 µM.

Turning to `Nc1ccc(-c2noc(-c3cc(Br)ccc3O)n2)nc1` [Compound 254, 2-[3-(5-Amino-pyridin-2-yl)-[1,2,4]oxadiazol-5-yl]-4-bromo-phenol], the EC50 was determined as 32 µM.

In the case of `Cc1ccc(O)c(-c2nc(-c3ccc(N)cn3)no2)c1` [Compound 255, 2-[3-(5-Amino-pyridin-2-yl)-[1,2,4]oxadiazol-5-yl]-4-methyl-phenol], the EC50 turned out to be 24 µM.
